Test results: patent US7879795B2, “Enhancement of tigecycline potency using efflux pump inhibitors” (Mpex Pharmaceuticals, Inc., priority 2004, dated 2011)

Columns and labels:
[1] = In vitro stability in rat serum and tissue homogenates (LC/MS/MS); assay type: in vitro ADME; settings: rat kidney homogenates, as a function of time
Description: To test the stability of the compounds in vitro, samples were prepared and analyzed by LC/MS/MS according to the following procedure.
Homogenization: A chunk of fresh tissue was weighed and mixed with saline at 1:1 ratio (w/v) in a 12×75 mm polypropylene round bottom tube. The mixture was homogenized with a Polytron homogenizer (on ice, 3×10 seconds with 10 second intervals at the setting of 7).
Incubation and TCA-precipitation: An appropriate amount of a tissue homogenate was pre-warmed at 37° C. for 2 minutes in an Eppendorf tube. The compound to be tested was added to the tube to a final concentration of 2 μg/ml, mixed, and a 60 μl aliquot was immediately taken (as 0 hour sample) and mixed with 120 μl of 4% TCA (trichloroacetic acid) in an Eppendorf tube. The temperature of the tube containing the rest of the tissue sample was returned to 37° C. for incubation. Later, samples were taken as scheduled and mixed with TCA as described above. Plasma and lavage samples were directly incubated with the compounds without addition of saline and homogenization.
LC/MS/MS sample vial preparation: TCA-precipitated sample tubes were vortexed for 30 seconds, centrifuged in a microfuge at top speed (13.2 k rpm) for 5 minutes. The supernatant was collected. The pH was neutralized to about 3.5 with ammonium acetate buffer. The sample (45 μl) was transferred to a glass LC/MS/MS vial (Kimble, 11 mm, 1.5 ml) and 5 μl of an internal standard was added to a final concentration of 500 ng/ml. LC/MS/MS analysis was performed in Chemistry Department of San Diego State University.
LC/MS/MS protocol: Thermo-Finnigan TSQ Quantum triple sector mass spectrometer with electrospray (ESI) ionization was used to analyze the samples. The operation conditions were: Mobile phase of pH 3.00 water/formic acid: acetonitrile-methanol (45%:5%:50% by volume); Thermo-Keystone Betabasic C-18 column (2.1 mm×50 mm) operated at 0.100 mL/min.
Many proteases responsible for degrading EPI compounds are located in […]. Lysozymes typically have an acidic pH (about 4.8-5), whereas the pH in tissue homogenates that were prepared was higher (kidney, pH 6.8; liver, pH 6.6; and lung, pH 7.5). To test the effect of tissue homogenates closer to physiological conditions, the pH was lowered to about 6 by adding acetic acid to the tissue homogenates and compound stability was tested. FIG. 2 depicts the stability of compounds 1 and 3 at different pH. […] The pH-dependent degradation of compound 3 was especially evident in kidney homogenates.
FIG. 4 is a bar graph depicting the stability of compound 3 in the supernatant and pellet of kidney tissue homogenates.

[2] = Stability in human kidney tissue preparations; assay type: in vitro ADME; settings: in words
From the text: The pattern of in vitro stability of compound 3 (stable in serum but unstable in tissues) observed in rodents was also reproduced using human kidney tissues or serum. FIG. 7 compares the in vitro stability of compounds 1 and 3 in human kidney tissue preparations.
FIG. 8 depicts formation of the metabolite, compound 67, in human kidney tissue. Concomitant with the disappearance of compound 3, generation of the expected metabolite of the presumed intralysosomal degradation, compound 67, was detected using human kidney.

[3] = Tissue levels in rat six-hour after 8.4 mg/kg IV bolus; assay type: in vivo; settings: in words
Description: Tissue levels of compounds 1, 2, 3 and 4 were evaluated in kidney, liver and lung six-hour after 8.4 mg/kg IV bolus administration. FIG. 13 depicts the levels as a function of time.
Compound 67, which is the expected metabolite of proteolytic intracellular degradation of compound 3, was detected in rat tissues after IV infusion, confirming the tissue-specific degradation of compound 3 (Tables 9A, B).

[4] = test system: P. aeruginosa, PAM1723, overexpressing the MexAB-OprM efflux pump; experiment: Levofloxacin potentiation checkerboard assay (broth microdilution); assay type: cell-based; settings: in words
Description: Stock solution was stored at −80° C.
The checkerboard assay was performed in microtiter plates. […] EPIs were diluted in the y axis, each row containing an equal concentration of an EPI. The result of these manipulations was that each well of the microtiter plate contains a unique combination of concentrations of the two agents. The assay was performed in MHB with a final bacterial inoculum of 5×10^5 CFU/ml (from an early-log phase culture). Microtiter plates were incubated during 20 h at 35° C. and were read using a microtiterplate reader (Molecular Devices) at 650 nm as well as visual observation using a microtiter plate-reading mirror.

[5] = Serum levels of compound 3 after administration of acylated forms in rats; assay type: in vivo, rat; settings: compound 5 8.4 mg/kg injected, compound 43 10 mg/kg two-hour infusion
Description: Rats were injected with compound 5 (8.4 mg/kg) and serum levels of the parent compound 3 were evaluated after extraction. The serum levels as a function of time are depicted in FIG. 16.
Rats were infused for two hours with compound 43 at 10 mg/kg and serum levels of the parent compound 3 were evaluated after extraction. FIG. 17 depicts the serum levels of compound 3 as a function of time.

[6] = Acute toxicity, minimal lethal dose after IV bolus in mice; assay type: in vivo, mouse; settings: IV bolus into tail vein, lethal for at least one of three mice
Description: Acute toxicity was measured as minimal lethal dose (MLD). MLD is defined as a minimal concentration of a compound that has lethal effect for at least one mouse from the group of three mice after IV bolus injection into the mouse tail vein.

[7] = test system: strain 29A2 of P. aeruginosa overexpressing MexAB-OprM efflux pump; experiment: Neutropenic mice lung model of PA infection; assay type: in vivo; settings: levofloxacin 30 mg/kg SQ plus EPI IP
Description: Neutropenia was induced by cyclophosphamide 100 mg/kg IP on days 3 and 1 prior to infection. The strain 29A2 of P. aeruginosa overexpressing MexAB-OprM efflux pump was grown overnight in Mueller-Hinton Broth (MHB). The next day overnight culture was diluted in fresh MHB and was allowed to re-grow to ˜10^8 CFU/mL (OD600˜0.3). The culture was spun down, washed twice with phosphate buffered saline (PBS) and re-suspended in PBS to ˜4×10^7 CFU/mL. 50 μl of inoculum was used for intratracheal instillation of mice, which were anesthetized with sevoflourane/oxygen. […] Four mice from each treatment group were euthanized at various times after the start of treatment. The lungs were removed aseptically, homogenized in saline, and immediately plated to determine bacterial load (CFU/ml) in infected lungs. P. aeruginosa is plotted as a function of time in FIG. 20.

PAM1723 = settings: summary of Table 4; in words
Description: Stability in rat and human serum was also evaluated using a bioassay. 320 μg/ml of the test compound was treated with 50% serum for 4 hours.
Bioassays as described in Example 62 and Example 65 were used to evaluate the stability of various compounds in serum and rabbit kidney homogenates.

[8] = test system: P. aeruginosa strain PAM1723 overexpressing MexAB-OprM efflux pump; experiment: Neutropenic mice thigh model of PA infection; assay type: in vivo; settings: levofloxacin 30 mg/kg SQ, EPI 60 mg/kg IP, 2 hours post-infection
Description: Efficacy of the EPIs was evaluated in a Neutropenic Mice Thigh Model of P. aeruginosa Infection. Neutropenia was induced by cyclophosphamide 100 mg/kg IP on days 3 and 1 prior to infection. P. aeruginosa strain PAM1723 overexpressing MexAB-OprM efflux pump was grown overnight in Mueller-Hinton Broth (MHB). The next day, the overnight culture was diluted in fresh MHB and was allowed to re-grow to ˜10^8 CFU/mL (OD600˜0.3). The culture was spun down, washed twice with phosphate buffered saline (PBS) and re-suspend in PBS to ˜4×10^6 CFU/mL. Next, this culture was mixed 1:1 with 14% hog-gastric mucin in PBS to give a final inoculum of 2×10^6 CFU/mL. Infection was initiated with injection of 0.1 mL of inoculum (˜2×10^5 CFU/thigh) directly into both thighs of each mouse. Two mice from each treatment group were euthanized at various times after the start of treatment. The thighs were removed aseptically, homogenized in saline, and immediately plated to determine bacterial load (CFU/ml). Treatment was initiated 2 hours post infection.

[9] = in vivo; cited from earlier work

Row | SMILES | in vitro levofloxacin potentiating activity [4] | metabolism in serum to produce compound 3 [5] | MLD (minimal lethal dose) [6] | other results
1 | NC(CCc1ccccc1)C(=O)Nc1cnc2ccccc2c1 (stereo in doubt) [Compound 67, 2-(S)-Amino-4-phenyl-N-quinolin-3-yl-butyramide] |  |  |  | level of degradation product 67 formed from compound 3 [1]: increased; generation of metabolite 67 from compound 3 in human kidney [2]: detected; detection of metabolite 67 in rat tissues after IV administration of compound 3 [3]: detected
2 | NCCC[C@H](NC(=O)C[C@H](N)C(=O)O)C(=O)N[C@H](CCc1ccccc1)C(=O)Nc1cnc2ccccc2c1 [Compound 5, 2-(S)-Amino-N-{4-amino-1-(S)-[3-phenyl-1-(R)-(quinolin-3-ylcarbamoyl)-propylcarbamoyl]-butyl}-succinamic acid] | devoid of levofloxacin potentiating activity | readily metabolized | 75 mg/kg | bacterial load in infected lungs, EPI with levofloxacin [7]: efficacious
3 | N[C@@H](CC(=O)O)C(=O)NCCC[C@H](N)C(=O)N[C@H](CCc1ccccc1)C(=O)Nc1cnc2ccccc2c1 [Compound 34, 3-(S)-Amino-N-{4-(S)-amino-4-[3-phenyl-1-(R)-(quinolin-3-ylcarbamoyl)-propylcarbamoyl]-butyl}-succinamic acid] |  |  | 50 mg/kg | stability in rat serum (PAM1723): unstable in rat serum
4 | N[C@@H](CC(=O)O)C(=O)NCCC[C@H](NC(=O)[C@@H](N)CC(=O)O)C(=O)N[C@H](CCc1ccccc1)C(=O)Nc1cnc2ccccc2c1 [Compound 43, 3-Amino-(S)—N-{4-(S)-(2-(3)-(S)-amino-3-carboxy-propionylamino)-4-[3-phenyl-1-(R)-(quinolin-3-ylcarbamoyl)-propylcarbamoyl]-butyl}-succinamic acid] | did not have in vitro levofloxacin potentiating activity | readily metabolized | 150 mg/kg | bacterial load in thighs, EPI with levofloxacin versus levofloxacin alone [8]: potentiated levofloxacin in vivo
5 | N=C(N)c1ccc(OCCCCCOc2ccc(C(=N)N)cc2)cc1 [pentamidine] |  |  |  | incidence of kidney toxicity [9]: above 75%
